Structures are written as SMILES.

The target of the first test is human serotonin transporter (SERT) (Homo sapiens (Human), UniProt P31645). The test is described as follows: Human serotonin transporter (SERT) binding test. As to conditions: [3H]-citalopram, h-SERT/CHO cell membrane; read-out: h-SERT binding inhibition constant Ki.
Regarding `CNCc1cc(OCc2ccccc2)n(C(C)C2CCCCC2)n1` (stereo not drawn) [Example 292, 1-[5-(benzyloxy)-1-(1-cyclohexylethyl)-1H-pyrazol-3-yl]-N-methylmethanamine], the Ki (commonly a measure of affinity in units of concentration, obtained from inhibition or displacement) was 0.96 nM.
As for `CNCc1cc(OCc2ccccc2F)n(CC2CCCCC2)n1` [Example 20, 1-{1-(cyclohexylmethyl)-5-[(2-fluorobenzyl)oxy]-1H-pyrazol-3-yl}-N-methylmethanamine], the Ki amounted to 1.6 nM.
Same read-out and setting: with `CNCc1cc(OCc2ccc(F)cc2C)n(C(C)C2CCCCC2)n1` (stereo not drawn) [Example 302, 1-{1-(1-cyclohexylethyl)-5-[(4-fluoro-2-methylbenzyl)oxy]-1H-pyrazol-3-yl}-N-methylmethanamine] the figure was 1.4 nM; with `CNCc1cc(OCc2ccccc2)n(CC2(C)CCCCC2)n1` [Example 331, 1-{5-(benzyloxy)-1-[(1-methylcyclohexyl)methyl]-1H-pyrazol-3-yl}-N-methylmethanamine], 1.3 nM; with `CNCc1cc(OCc2cc(F)ccc2F)n(CC2(F)CCCCC2)n1` [Example 127, 1-{5-[(2,5-difluorobenzyl)oxy]-1-[(1-fluorocyclohexyl)methyl]-1H-pyrazol-3-yl}-N-methylmethanamine], 1.3 nM.

The next test concerns the target human 5-HT2A receptor (Homo sapiens (Human), UniProt P28223). The test is described as follows: biochemical. The class given is binding. The settings on record: [3H]-ketanserin, human 5-HT2A receptor-expressed CHO cell membrane; read-out: 5-HT2A receptor binding inhibition constant Ki.
Consider `CNCc1cc(OCc2cc(F)c(F)cc2F)n(Cc2ccc(C)cc2)n1` [Example 286, N-methyl-1-{1-(4-methylbenzyl)-5-[(2,4,5-trifluorobenzyl)oxy]-1H-pyrazol-3-yl}methanamine], for which the Ki was determined as 2.4 nM.
Still for that read-out and setting: with `CNCc1cc(OCc2ccccc2)n(C(C)C2CCCCC2)n1` (stereo not drawn) [Example 292, 1-[5-(benzyloxy)-1-(1-cyclohexylethyl)-1H-pyrazol-3-yl]-N-methylmethanamine] the figure was 1.2 nM; with `CNCc1cc(OCc2ccccc2F)n(CC2CCCCC2)n1` [Example 20, 1-{1-(cyclohexylmethyl)-5-[(2-fluorobenzyl)oxy]-1H-pyrazol-3-yl}-N-methylmethanamine], 0.65 nM.
Turning to `CNCc1cc(OCc2ccc(F)cc2C)n(C(C)C2CCCCC2)n1` (stereo not drawn) [Example 302, 1-{1-(1-cyclohexylethyl)-5-[(4-fluoro-2-methylbenzyl)oxy]-1H-pyrazol-3-yl}-N-methylmethanamine], the inhibitory constant (Ki) stood at 0.94 nM.
Take `Fc1ccc(F)c(COc2cc(CNC3CC3)nn2CC2CCCCC2)c1` [Example 342, N-({1-(cyclohexylmethyl)-5-[(2,5-difluorobenzyl)oxy]-1H-pyrazol-3-yl}methyl)cyclopropanamine]: the Ki was 4.9 nM.
For the compound `CNCc1cc(OCc2ccccc2)n(CC2(C)CCCCC2)n1` [Example 331, 1-{5-(benzyloxy)-1-[(1-methylcyclohexyl)methyl]-1H-pyrazol-3-yl}-N-methylmethanamine], the Ki was 2.8 nM.
Same read-out and setting: with `CNCc1cc(OCc2cc(F)c(F)cc2F)n(CC2CCCC2)n1` [Example 280, 1-{1-(cyclopentylmethyl)-5-[(2,4,5-trifluorobenzyl)oxy]-1H-pyrazol-3-yl}-N-methylmethanamine] the figure was 1.3 nM; with `CNC(C)c1cc(OCc2cc(F)ccc2F)n(CCC2CCCC2)n1` (stereo not drawn) [Example 315, 1-{1-(2-cyclopentylethyl)-5-[(2,5-difluorobenzyl)oxy]-1H-pyrazol-3-yl}-N-methylethanamine], 0.6 nM.
Turning to `Cl.[2H]C([2H])(Oc1cc(CNC)nn1CC1CCCCC1)c1cc(F)ccc1F` [Example 497, 1-[1-(Cyclohexylmethyl)-5-{[(2,5-difluorophenyl) (^2H2)methyl]oxy}-1H-pyrazol-3-yl]-N-methylmethanamine Hydrochloride], the Ki was found to be 2.4 nM.
Same read-out and setting: with `CNCc1cc(OCc2cc(Cl)ccc2F)n(CC(C)(C)C)n1` [Example 259, 1-{5-[(5-chloro-2-fluorobenzyl)oxy]-1-(2,2-dimethylpropyl)-1H-pyrazol-3-yl}-N-methylmethanamine] the figure was 7.5 nM; with `CNCc1cc(OCc2cc(F)c(F)cc2F)n(CCC(C)(C)C)n1` [Example 284, 1-{1-(3,3-dimethylbutyl)-5-[(2,4,5-trifluorobenzyl)oxy]-1H-pyrazol-3-yl}-N-methylmethanamine], 1.8 nM.
For the compound `CNCc1cc(OCc2cc(F)ccc2F)n(CC2CCCCC2)n1` [Example 33, 1-{1-(cyclohexylmethyl)-5-[(2,5-difluorobenzyl)oxy]-1H-pyrazol-3-yl}-N-methylmethanamine], the Ki was found to be 0.5 nM.
Still for that read-out and setting: next, `CNCc1cc(OCc2ccccc2)n(CC2CC3CCC2C3)n1` (stereo not drawn) [Example 115, 1-[5-(benzyloxy)-1-(bicyclo[2.2.1]hept-2-ylmethyl)-1H-pyrazol-3-yl]-N-methylmethanamine]: 1 nM; `CNCc1cc(OCc2ccccc2)n(Cc2ccccc2)n1` [Example 1, 1-[l-benzyl-5-(benzyloxy)-1H-pyrazol-3-yl]-N-methylmethanamine]: 5.5 nM.
Same read-out and setting: with `CNCc1cc(OCc2cc(F)ccc2F)n(CCC(C)(C)C)n1` [Example 266, 1-{5-[(2,5-difluorobenzyl)oxy]-1-(3,3-dimethylbutyl)-1H-pyrazol-3-yl}-N-methylmethanamine] the figure was 0.65 nM.
Same read-out and setting: next, `CNCc1cc(OCc2cc(Cl)ccc2F)n(CC(C)C)n1` [Example 256, 1-{5-[(5-chloro-2-fluorobenzyl)oxy]-1-(2-methylpropyl)-1H-pyrazol-3-yl}-N-methylmethanamine]: 4.5 nM; `CNCc1cc(OCc2cc(F)ccc2F)n(Cc2ccc(C)cc2)n1` [Example 230, 1-{5-[(2,5-difluorobenzyl)oxy]-1-(4-methylbenzyl)-1H-pyrazol-3-yl}-N-methylmethanamine]: 2.7 nM; `CNCc1cc(OCc2ccc(F)cc2)n(CC2CCCC2)n1` [Example 137, 1-{1-(cyclopentylmethyl)-5-[(4-fluorobenzyl)oxy]-1H-pyrazol-3-yl}-N-methylmethanamine]: 1.3 nM.
Take `CNCc1cc(OCc2cc(F)ccc2F)n(Cc2ccc(F)cc2)n1` [Example 219, 1-{5-[(2,5-difluorobenzyl)oxy]-1-(4-fluorobenzyl)-1H-pyrazol-3-yl}-N-methylmethanamine]: the Ki came out at 1.3 nM.

The test is the same for the next values; noted with them: read-out: 5-HT2A receptor binding inhibition constant Ki.
For `CNCc1cc(OCc2ccccc2)n(C(C)C2CCCC2)n1` (stereo not drawn) [Example 288, 1-[5-(benzyloxy)-1-(1-cyclopentylethyl)-1H-pyrazol-3-yl]-N-methylmethanamine], the Ki came to 5.2 nM.
On the same count and under the same terms, with `CNCc1cc(OC(F)(F)c2ccccc2)n(CC2CCCCC2)n1` [Example 349, 1-{1-(cyclohexylmethyl)-5-[difluoro(phenyl)methoxy]-1H-pyrazol-3-yl}-N-methylmethanamine] the figure was 6 nM.
Same read-out and setting: next, `CNCc1cc(OCc2cccc(Cl)c2)n(CC2CCc3ccccc3O2)n1` (stereo not drawn) [Example 341, 1-{5-[(3-chlorobenzyl)oxy]-1-(3,4-dihydro-2H-chromen-2-ylmethyl)-1H-pyrazol-3-yl}-N-methylmethanamine]: 4.9 nM; `CNCc1cc(OCc2cc(Cl)ccc2F)n(CC2CCCC2)n1` [Example 148, 1-{5-[(5-chloro-2-fluorobenzyl)oxy]-1-(cyclopentylmethyl)-1H-pyrazol-3-yl}-N-methylmethanamine]: 1.8 nM.
`CNCc1cc(OCc2ccc(F)cc2F)n(CC2CCCC2)n1` [Example 144, 1-{1-(cyclopentylmethyl)-5-[(2,4-difluorobenzyl)oxy]-1H-pyrazol-3-yl}-N-methylmethanamine]: the Ki is 0.2 nM.
On the same count and under the same terms, with `CNCc1cc(OCc2ccccc2)n(CC2CCCCC2)n1` [Example 5, 1-[5-(benzyloxy)-1-(cyclohexylmethyl)-1H-pyrazol-3-yl]-N-methylmethanamine] the figure was 5.9 nM.
The same measure, in the same setting: next, `CNCc1cc(OCc2ccccc2F)n(Cc2ccc(F)cc2)n1` [Example 218, 1-{1-(4-fluorobenzyl)-5-[(2-fluorobenzyl)oxy]-1H-pyrazol-3-yl}-N-methylmethanamine]: 1.2 nM; `CNCc1cc(OCc2ccccc2)n(C(CF)C2CCCCC2)n1` (stereo not drawn) [Example 330, 1-[5-(benzyloxy)-1-(1-cyclohexyl-2-fluoroethyl)-1H-pyrazol-3-yl]-N-methylmethanamine]: 2.8 nM; `CNCc1cc(OCc2ccc(F)cc2C)n(CC2CCCCC2)n1` [Example 31, 1-{1-(cyclohexylmethyl)-5-[(4-fluoro-2-methylbenzyl)oxy]-1H-pyrazol-3-yl}-N-methylmethanamine]: 1.4 nM.

Values taken from US11576897B2, “Therapeutic agent for non-motor symptoms associated with Parkinson's disease” (priority 2017, dated 2023).
